Results reported in patent publication US8466193B2, “Selective inhibitors of histone deacetylase” (Pharmacyclics, Inc., priority 2008, dated 2013).

How the values were obtained:
[1] = system: Jurkat cells; experiment: Cell proliferation assay, growth inhibition by Alamar Blue; format: cell-based; conditions: Homo sapiens, 72 h, Jurkat cells treated with compound for 3 days
Description: Cell lines were obtained from DSMZ (Braunschweig, Germany) or ATCC (Manassas, Va.). Cells were grown in RPMI 1640 with 10% fetal bovine serum in a 5% CO2/air incubator at 37° C. Thapsigargin and BAPTA-AM were from Calbiochem (San Diego, Calif.). 3-((dimethylamino)methyl)-N-(2-(4-(hydroxycarbamoyl)phenoxy)ethyl)benzofuran-2-carboxamide is a broad-spectrum HDAC inhibitor which was synthesized as previously described. Other analogs with varying degrees of specificity towards the HDAC isoforms were synthesized as described herein.
Tumor cell lines and human umbilical vein endothelial cells (HUVEC) were cultured for at least two doubling times, and growth was monitored at the end of compound exposure using an Alamar Blue™ (Biosource, Camarillo, Calif.) fluorometric cell proliferation assay as recommended by the manufacturer. Compounds were assayed in triplicate wells in 96-well plates. The concentration required to inhibit cell growth by 50% (GI50) and 95% confidence intervals were estimated from nonlinear regression using a 4-parameter logistic equation. The effect of HDAC8 selective inhibitor compounds on cell proliferation in Jurkat cells was measured. Apoptosis was measured by Annexin-V flow cytommetry. Growth inhibition was measured by Alamar Blue assay. Cells were treated with compound for 3 days.

[2] = Pharmacokinetic analysis in male rats, oral gavage; format: in vivo; conditions: CD IGS (Sprague-Dawley derived), rat, plasma, orally at 3 mg/kg, compounds administered in combination
Description: This study, performed in male rats with test compounds (Compound 303 and Compound 316), was designed to provide preliminary information on their pharmacokinetics. The test compounds were administered in combination by oral gavage.
The specifications for rats used on this study are as follows: • Strain: CD® IGS rats (Sprague-Dawley derived) • Source: Charles River Laboratories • Surgical modification for oral dosing: One portal vein cannula and one jugular vein cannula • Body weight range at dosing 350 to 375 g
The rats were acclimatized to laboratory conditions for at least 24 hours before dosing. The evening before dosing, food was withheld from the rats and was returned immediately following the 3-hour blood collection time point. Water was provided ad libitum. The rats were housed individually in translucent polycarbonate cages.
Test compounds were prepared as 3.0 mg/ml solutions (1% MC/0.4% Cr EL in WFI).
Rats were administered a single dose of test compound in combination by oral gavage. Dose volumes were adjusted based on body weight data collected immediately prior to dosing.
The dose volume was 1 ml/kg and the nominal dosage was 3 mg/kg.
Blood samples were collected at 5 minutes, 20 minutes, 1 hour, 3 hours, 6 hours, 9 hours, and 24 hours post-dosing from orally dosed rats. The samples were collected into plasma separator Microtainer tubes with anticoagulant (lithium heparin). Plasma samples were prepared by centrifugation (5 min at 5000×g), and at least 100 μL were transferred to storage tubes and frozen on dry ice. Samples were maintained at approximately −75 C until prepared for analysis.
Plasma samples were thawed and 75 uL aliquots were transferred to centrifuge tubes to which 10 μL aliquots of internal standard solution (0.5 μg/mL) were added. The samples were not diluted with blank plasma prior to further processing. Soluble proteins were precipitated by the addition of 300 μL of methanol, followed by centrifugation (20 min at 16,000×g). The samples were evaporated to dryness and reconstituted in 100 μL of water containing 0.2% formic acid and 10% methanol. All samples were loaded onto an autosampler maintained at 6° C. and evaluated for concentrations of test compound using LC-MS/MS. lasma concentration data were evaluated using the computer program WinNonlin (Professional Edition, Pharsight Corporation, version 5.01). […]
Pan HDAC inhibitor 3-((dimethylamino)methyl)-N-(2-(4-(hydroxycarbamoyl)phenoxy)ethyl)benzofuran-2-carboxamide was added to the cassette to serve as a standard since the pharmacokinetics of this compound have been determined previously in rats. The UC's determined for rats administered Compound 303 and Compound 316 orally at 3 mg/kg were 1.42, and 5.36 μg·h/mL, respectively. […]

## O=C(NO)c1ccc2ccn(CCCc3ccccc3)c2c1 [Compound 303, N-hydroxy-1-(3-phenyl-propyl)-1H-indole-6-carboxamide]
[1]
  GI50: 3.5 µM
[2]
  AUC: 1420 ng·h/mL
  Cmax: 310 ng/mL
